# US20240228489A1, “POSITIVE ALLOSTERIC MODULATORS OF THE MUSCARINIC ACETYLCHOLINE RECEPTOR M1” (Vanderbilt University, priority 2021, published 2024)
# Tests used:
# human mAChR M1 [1] = target: T1, human mAChR M1 (Homo sapiens, UniProt P11229); test: mAChR M1 cell-based functional assay (calcium mobilization), PAM mode: increase in the EC20 acetylcholine response
# T1 sequence (P11229 1-460): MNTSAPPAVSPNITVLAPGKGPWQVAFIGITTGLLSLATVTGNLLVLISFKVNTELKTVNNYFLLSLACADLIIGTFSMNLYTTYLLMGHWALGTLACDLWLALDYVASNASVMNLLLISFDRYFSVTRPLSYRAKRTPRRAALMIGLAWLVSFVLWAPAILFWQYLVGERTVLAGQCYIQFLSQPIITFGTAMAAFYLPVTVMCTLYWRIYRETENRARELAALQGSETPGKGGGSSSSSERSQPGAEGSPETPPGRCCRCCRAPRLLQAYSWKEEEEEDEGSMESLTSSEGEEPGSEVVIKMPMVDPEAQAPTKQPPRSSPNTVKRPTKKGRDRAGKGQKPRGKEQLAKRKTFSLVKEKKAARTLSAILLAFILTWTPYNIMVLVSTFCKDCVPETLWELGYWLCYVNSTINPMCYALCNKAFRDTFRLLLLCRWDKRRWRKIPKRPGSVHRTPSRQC
# Outline: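 PAM readout is the concentration-dependent rise in the EC20 acetylcholine calcium signal, fitted to a four-parameter logistic (EC50, Emax). Compounds were preincubated from 4 s before ACh at 144 s (EC20) and 230 s (EC80). hM1-expressing CHO-K1 cells loaded with Fluo-4, FDSS ratio read.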
# human mAChR M1 [2] = target: T1, human mAChR M1; test: mAChR M1 cell-based functional assay (calcium mobilization), agonist mode: compound alone, Emax relative to acetylcholine maximum; settings: for Agonist Activity Human M1 EC50 / EC50: human mAChR M1; for Emax: relative to the maximum for acetylcholine
# Outline: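 Agonist activity is the concentration-dependent rise in intracellular calcium (Fluo-4, 1 Hz read) after compound addition, measured before any acetylcholine was added, in stable hM1 CHO-K1 cells. Curves were 11-point, 1:3 dilutions fitted by four-parameter logistic. Emax is given as a fraction of maximal acetylcholine response.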
EC50 (human mAChR M1 [1]),Emax (human mAChR M1 [1]),Agonist Activity Human M1 EC50 (human mAChR M1 [2]),Emax (human mAChR M1 [2]),Compound,EC50 (human mAChR M1 [2])
5.24 µM,59%,Inactive,1%,"[2H]C1([2H])c2ncccc2C(=O)N1Cc1c(F)cc(-c2cccc3nn(C)cc23)cc1C1CCCC1 [Compound 223, 6-(2-cyclopentyl-6-fluoro-4-(2-methyl-2H-indazol-4-yl)benzyl)-6,7-dihydro-5H-pyrrolo[3,4-b]pyridin-5-one-7,7-d2]",
6.46 µM,62%,Inactive,1%,"[2H]C1([2H])c2ncccc2C(=O)N1Cc1c(F)cc(-c2cccc3nn(C([2H])([2H])[2H])cc23)cc1C1CCCC1 [Compound 224, 6-(2-cyclopentyl-6-fluoro-4-(2-(methyl-d3)-2H-indazol-4-yl)benzyl)-6,7-dihydro-5H-pyrrolo[3,4-b]pyridin-5-one-7,7-d2]",
1.37 µM,58%,Inactive,3%,"[2H]C1([2H])c2ncccc2C(=O)N1Cc1c(F)cc(-c2cccc3nn(C)cc23)cc1C(F)(F)F [Compound 225, 6-(2-fluoro-4-(2-methyl-2H-indazol-4-yl)-6-(trifluoromethyl)benzyl)-6,7-dihydro-5H-pyrrolo[3,4-b]pyridin-5-one-7,7-d2]",
1.36 µM,54%,Inactive,2%,"[2H]C1([2H])c2ncccc2C(=O)N1Cc1c(F)cc(-c2cccc3nn(C([2H])([2H])[2H])cc23)cc1C(F)(F)F [Compound 226, 6-(2-fluoro-4-(2-(methyl-d3)-2H-indazol-4-yl)-6-(trifluoromethyl)benzyl)-6,7-dihydro-5H-pyrrolo[3,4-b]pyridin-5-one-7,7-d2]",
0.9 µM,63%,Inactive,1%,"[2H]C1([2H])c2ncccc2C(=O)N1Cc1c(Cl)cc(-c2cccc3nn(C)cc23)cc1Cl [Compound 227, 6-(2,6-dichloro-4-(2-methyl-2H-indazol-4-yl)benzyl)-6,7-dihydro-5H-pyrrolo[3,4-b]pyridin-5-one-7,7-d2]",
0.38 µM,60%,Inactive,1%,"[2H]C1([2H])c2ncccc2C(=O)N1Cc1c(Cl)cc(-c2cccc3nn(C([2H])([2H])[2H])cc23)cc1Cl [Compound 228, 6-(2,6-dichloro-4-(2-(methyl--d3)-2H-indazol-4-yl)benzyl)-6,7-dihydro-5H-pyrrolo[3,4-b]pyridin-5-one-7,7-d2]",
≥ 10 µM,42%,Inactive,4%,"[2H]C1([2H])c2ncccc2C(=O)N1Cc1c(F)cc(-c2cccc3nn(C)cc23)cc1N(C)C [Compound 229, 6-(2-(dimethylamino)-6-fluoro-4-(2-methyl-2H-indazol-4-yl)benzyl)-6,7-dihydro-5H-pyrrolo[3,4-b]pyridin-5-one-7,7-d2]",
≥ 10 µM,38%,Inactive,3%,"[2H]C1([2H])c2ncccc2C(=O)N1Cc1c(F)cc(-c2cccc3nn(C([2H])([2H])[2H])cc23)cc1N(C)C [Compound 230, 6-(2-(dimethylamino)-6-fluoro-4-(2-(methyl-d3)-2H-indazol-4-yl)benzyl)-6,7-dihydro-5H-pyrrolo[3,4-b]pyridin-5-one-7,7-d2]",
0.806 µM,73%,Inactive,7%,"[2H]C1([2H])c2ncccc2C(=O)N1Cc1c(F)cc(-c2cccc3nn(C)cc23)cc1OC [Compound 231, 6-(2-fluoro-6-methoxy-4-(2-methyl-2H-indazol-4-yl)benzyl)-6,7-dihydro-5H-pyrrolo[3,4-b]pyridin-5-one-7,7-d2]",
0.76 µM,80%,Inactive,8%,"[2H]C1([2H])c2ncccc2C(=O)N1Cc1c(F)cc(-c2cccc3nn(C([2H])([2H])[2H])cc23)cc1OC [Compound 232, 6-(2-fluoro-6-methoxy-4-(2-(methyl-d3)-2H-indazol-4-yl)benzyl)-6,7-dihydro-5H-pyrrolo[3,4-b]pyridin-5-one-7,7-d2]",

# More lines, now with the values behind:
Compound,EC50 (human mAChR M1 [1]),Emax (human mAChR M1 [1]),Agonist Activity Human M1 EC50 (human mAChR M1 [2]),Emax (human mAChR M1 [2]),EC50 (human mAChR M1 [2])
"[2H]C1([2H])c2ncccc2C(=O)N1Cc1c(F)cc(-c2ccc(OC3CC3)c3nn(C)cc23)cc1OCC(C)C [Compound 212, 6-(4-(7-cyclopropoxy-2-methyl-2H-indazol-4-yl)-2-fluoro-6-isobutoxybenzyl)-6,7-dihydro-5H-pyrrolo[3,4-b]pyridin-5-one-7,7-d2]",1.45 µM,82%,Inactive,2%,
"[2H]C1([2H])c2ncccc2C(=O)N1Cc1c(F)cc(-c2ccc(C)c3nn(C)cc23)cc1OCC(C)C [Compound 213, 6-(4-(2,7-dimethyl-2H-indazol-4-yl)-2-fluoro-6-isobutoxybenzyl)-6,7-dihydro-5H-pyrrolo[3,4-b]pyridin-5-one-7,7-d2]",1.52 µM,81%,Inactive,3%,
"[2H]C1([2H])c2ncccc2C(=O)N1Cc1c(F)cc(-c2ccc(F)c3nn(C)cc23)cc1OCC(C)C [Compound 214, 6-(2-fluoro-4-(7-fluoro-2-methyl-2H-indazol-4-yl)-6-isobutoxybenzyl)-6,7-dihydro-5H-pyrrolo[3,4-b]pyridin-5-one-7,7-d2]",1.29 µM,79%,Inactive,2%,
"[2H]C1([2H])c2ncccc2C(=O)N1Cc1c(F)cc(-c2ccc(Cl)c3nn(C)cc23)cc1OCC(C)C [Compound 215, 6-(4-(7-chloro-2-methyl-2H-indazol-4-yl)-2-fluoro-6-isobutoxybenzyl)-6,7-dihydro-5H-pyrrolo[3,4-b]pyridin-5-one-7,7-d2]",2.38 µM,83%,Inactive,2%,
"[2H]C1([2H])c2ncccc2C(=O)N1Cc1c(F)cc(-c2ccc(C(F)(F)F)c3nn(C)cc23)cc1OCC(C)C [Compound 216, 6-(2-fluoro-6-isobutoxy-4-(2-methyl-7-(trifluoromethyl)-2H-indazol-4-yl)benzyl)-6,7-dihydro-5H-pyrrolo[3,4-b]pyridin-5-one-7,7-d2]",3.18 µM,83%,Inactive,2%,
"[2H]C1([2H])c2ncccc2C(=O)N1Cc1c(F)cc(-c2ccnc3nn(C)cc23)cc1OCC(C)C [Compound 217, 6-(2-fluoro-6-isobutoxy-4-(2-methyl-2H-pyrazolo[3,4-b]pyridin-4-yl)benzyl)-6,7-dihydro-5H-pyrrolo[3,4-b]pyridin-5-one-7,7-d2]",0.207 µM,78%,,23%,2.86 µM
"[2H]C1([2H])c2ncccc2C(=O)N1Cc1c(F)cc(-c2ccc(OCCOC)c3nn(C)cc23)cc1OCC(C)C [Compound 218, 6-(2-fluoro-6-isobutoxy-4-(7-(2-methoxyethoxy)-2-methyl-2H-indazol-4-yl)benzyl)-6,7-dihydro-5H-pyrrolo[3,4-b]pyridin-5-one-7,7-d2]",0.516 µM,79%,,25%,7.76 µM
"[2H]C1([2H])c2ncccc2C(=O)N1Cc1c(Cl)cc(-c2cccc3nn(C)cc23)cc1C1CC1 [Compound 219, 6-(2-chloro-6-cyclopropyl-4-(2-methyl-2H-indazol-4-yl)benzyl)-6,7-dihydro-5H-pyrrolo[3,4-]pyridin-5-one-7,7-d2]",0.49 µM,89%,Inactive,8%,
"[2H]C1([2H])c2ncccc2C(=O)N1Cc1c(Cl)cc(-c2cccc3nn(C([2H])([2H])[2H])cc23)cc1C1CC1 [Compound 220, 6-(2-chloro-6-cyclopropyl-4-(2-(methyl-d3)-2H-indazol-4-yl)benzyl)-6,7-dihydro-5H-pyrrolo[3,4-b]pyridin-5-one-7,7-d2]",0.472 µM,86%,Inactive,8%,
"[2H]C1([2H])c2ncccc2C(=O)N1Cc1c(F)cc(-c2cccc3nn(C)cc23)cc1N1CCC1 [Compound 221, 6-(2-(azetidin-1-yl)-6-fluoro-4-(2-methyl-2H-indazol-4-yl)benzyl)-6,7-dihydro-5H-pyrrolo[3,4-b]pyridin-5-one-7,7-d2]",2.69 µM,82%,Inactive,2%,
"[2H]C1([2H])c2ncccc2C(=O)N1Cc1c(F)cc(-c2cccc3nn(C([2H])([2H])[2H])cc23)cc1N1CCC1 [Compound 222, 6-(2-(azetidin-1-yl)-6-fluoro-4-(2-(methyl-d3)-2H-indazol-4-yl)benzyl)-6,7-dihydro-5H-pyrrolo[3,4-b]pyridin-5-one-7,7-d2]",3.78 µM,77%,Inactive,1%,
